From US9580413B2, “Substituted pyrrolidines as ROS tyrosine kinase inhibitors” (NIPPON SHINYAKU CO., LTD., priority 2012, dated 2017)
Where a name gives a salt, the structure may show the parent alone.

How the values were obtained:
[1] = target: T1, JAK2 tyrosine kinase (Homo sapiens, UniProt O60674); test: JAK2 tyrosine kinase inhibitory activity test (ELISA); format: biochemical, humans; conditions: 25 μM ATP substrate solution, 30° C., one hour
T1 construct: purchased Carna Biosciences, Inc
Experimental: (§1) 1. Preparation of Test Substance:
(§2) A test substance was dissolved in dimethyl sulfoxide (DMSO) to 10 mM and further diluted with DMSO to concentrations of 100-fold of the concentrations to be measured (100, 10, 1, 0.1, and 0.01 μM). Furthermore, the resultant was diluted with an assay buffer to 20-fold, thereby preparing a solution as a test substance solution. A solution prepared by diluting DMSO with an assay buffer to 20-fold was used as a negative control. A buffer containing 15 mM Tris-Cl (pH 7.5), 0.01 (v/v) % Tween-20, and 1 mM dithiothreitol was used as the assay buffer.
(§3) 2. Measurement of ROS Tyrosine Kinase Activity and JAK2 Tyrosine Kinase Activity:
(§4) The activity was measured by adopting the ELISA method. […] Finally, an ROS kinase or a JAK2 kinase (derived from humans, Carna Biosciences, Inc.) (diluted with the assay buffer to 0.25 nM) was added to the plate at 20 μL per well, and the resulting mixture was stirred. A reaction was performed at 30° C. for one hour. After the plate was washed 4 times with a washing buffer (50 mM Tris-Cl (pH 7.5), 150 mM NaCl, and 0.02 (v/v) % Tween-20), a blocking buffer (0.1% bovine serum albumin, 50 mM Tris-Cl (pH 7.5), 150 mM NaCl, and 0.02 (v/v) % Tween-20) was added to the plate at 150 μL per well, and incubated at 30° C. for 30 minutes. The blocking buffer was then removed, and a horse radish peroxidase-labeled anti-phosphorylated tyrosine antibody (BD Biosciences, Inc.) (diluted with the blocking buffer to 10,000-fold) was added to the plate at 100 μL per well, and the plate was incubated at 30° C. for 30 minutes. After the plate was washed 4 times with the washing buffer, a 3,3′,5,5′-tetramethylbenzidine solution (Sigma-Aldrich Co., Ltd.) was added to the plate at 100 μL per well to develop the color for 10 minutes. The reaction was stopped by adding 0.1 M sulfuric acid at 100 μL per well. An absorbance at 450 nm was measured with a microplate reader (Model 3550, manufactured by BIO-RAD, Benchmark, manufactured by BIO-RAD, or iMARK, manufactured by BIO-RAD).
(§5) 3. Analysis of Measurement Results:
(§6) A non-linear regression analysis was performed for the measured absorbance with an SAS system (SAS Institute Inc.), and a concentration of each of the test substances of inhibiting the ROS tyrosine kinase activity or JAK2 tyrosine kinase activity at 50% (IC50) was calculated. The inhibitory activity (IC50, nM) of each of the test substances against the ROS tyrosine kinase or JAK2 tyrosine kinase is shown in Tables 6 to 8.

[2] = target: T2, FIG-ROS/BaF3 cell (Homo sapiens, UniProt P08922); test: Proliferation inhibitory activity test against FIG-ROS/BaF3 cell; format: cell-based; conditions: 3 days incubation, cell counting kit; read-out: Proliferation inhibitory activity against FIG-ROS/BaF3 cell (IC50)
T2 construct: fused on or other part: Q9HD26 (Golgi-associated PDZ and coiled-coil motif-containing protein)
Experimental: A BaF3 cell which had been transformed by introducing the FIG-ROS fusion gene (derived from U118MG human glioma cell) (FIG-ROS/BaF3 Cell) was prepared on a culture medium, seeded on a 96-well plate in the number of 1×10^3/100 μL per well, and then allowed to stand in a CO2 incubator (at 37° C. and 5% CO2). As the culture medium, 10% FBS (fetal bovine serum)-incorporated RPMI-1640 was used.
2. Proliferation Inhibitory Activity Test:
A test substance was dissolved in dimethyl sulfoxide (DMSO) to 10 mM and further diluted with DMSO to 100-fold to prepare a 100 μM solution. This was diluted with a 1% DMSO-incorporated medium to concentrations of 10-fold of the concentration to be measured (10,000, 1,000, 100, 10, and 1 nM). Each of the medicine solutions was added at 11 μL per well and mixed. To a control having no medicine added thereto, a 1% DMSO-incorporated medium was added, and incubated in a CO2 incubator (at 37° C. and 5% CO2) for 3 days. After completion of the incubation, the number of live cells was counted using a cell counting kit. First of all, each cell counting kit solution was added at 5 μL per well and mixed, and incubated in a CO2 incubator (at 37° C. and 5% CO2) for 4 hours. An absorbance at 450 nm was measured with a microplate reader (Model 3550, manufactured by BIO-RAD, Benchmark, manufactured by BIO-RAD, or iMARK, manufactured by BIO-RAD) with a reference wavelength of 650 nm.
as §5
A non-linear regression analysis was performed for the measured absorbance with an SAS system (SAS Institute Inc.), and a concentration of each of the test substances of inhibiting the cell proliferation at 50% (IC50) was calculated. The proliferation inhibitory activity (IC50, nM) of each of the test substances against the FIG-ROS/BaF3 cell is shown in Table 9.

[3] = target: T3, ROS tyrosine kinase (Homo sapiens, UniProt P08922); test: ROS tyrosine kinase inhibitory activity test (ELISA); format: biochemical, humans; conditions: 25 μM ATP substrate solution, 30° C., one hour
T3 construct: purchased Carna Biosciences, Inc
Experimental: as §1, §2, §3, §4, §5, §6

T2 sequence (P08922 whole entry, stated change not applied, the tested form may be a part): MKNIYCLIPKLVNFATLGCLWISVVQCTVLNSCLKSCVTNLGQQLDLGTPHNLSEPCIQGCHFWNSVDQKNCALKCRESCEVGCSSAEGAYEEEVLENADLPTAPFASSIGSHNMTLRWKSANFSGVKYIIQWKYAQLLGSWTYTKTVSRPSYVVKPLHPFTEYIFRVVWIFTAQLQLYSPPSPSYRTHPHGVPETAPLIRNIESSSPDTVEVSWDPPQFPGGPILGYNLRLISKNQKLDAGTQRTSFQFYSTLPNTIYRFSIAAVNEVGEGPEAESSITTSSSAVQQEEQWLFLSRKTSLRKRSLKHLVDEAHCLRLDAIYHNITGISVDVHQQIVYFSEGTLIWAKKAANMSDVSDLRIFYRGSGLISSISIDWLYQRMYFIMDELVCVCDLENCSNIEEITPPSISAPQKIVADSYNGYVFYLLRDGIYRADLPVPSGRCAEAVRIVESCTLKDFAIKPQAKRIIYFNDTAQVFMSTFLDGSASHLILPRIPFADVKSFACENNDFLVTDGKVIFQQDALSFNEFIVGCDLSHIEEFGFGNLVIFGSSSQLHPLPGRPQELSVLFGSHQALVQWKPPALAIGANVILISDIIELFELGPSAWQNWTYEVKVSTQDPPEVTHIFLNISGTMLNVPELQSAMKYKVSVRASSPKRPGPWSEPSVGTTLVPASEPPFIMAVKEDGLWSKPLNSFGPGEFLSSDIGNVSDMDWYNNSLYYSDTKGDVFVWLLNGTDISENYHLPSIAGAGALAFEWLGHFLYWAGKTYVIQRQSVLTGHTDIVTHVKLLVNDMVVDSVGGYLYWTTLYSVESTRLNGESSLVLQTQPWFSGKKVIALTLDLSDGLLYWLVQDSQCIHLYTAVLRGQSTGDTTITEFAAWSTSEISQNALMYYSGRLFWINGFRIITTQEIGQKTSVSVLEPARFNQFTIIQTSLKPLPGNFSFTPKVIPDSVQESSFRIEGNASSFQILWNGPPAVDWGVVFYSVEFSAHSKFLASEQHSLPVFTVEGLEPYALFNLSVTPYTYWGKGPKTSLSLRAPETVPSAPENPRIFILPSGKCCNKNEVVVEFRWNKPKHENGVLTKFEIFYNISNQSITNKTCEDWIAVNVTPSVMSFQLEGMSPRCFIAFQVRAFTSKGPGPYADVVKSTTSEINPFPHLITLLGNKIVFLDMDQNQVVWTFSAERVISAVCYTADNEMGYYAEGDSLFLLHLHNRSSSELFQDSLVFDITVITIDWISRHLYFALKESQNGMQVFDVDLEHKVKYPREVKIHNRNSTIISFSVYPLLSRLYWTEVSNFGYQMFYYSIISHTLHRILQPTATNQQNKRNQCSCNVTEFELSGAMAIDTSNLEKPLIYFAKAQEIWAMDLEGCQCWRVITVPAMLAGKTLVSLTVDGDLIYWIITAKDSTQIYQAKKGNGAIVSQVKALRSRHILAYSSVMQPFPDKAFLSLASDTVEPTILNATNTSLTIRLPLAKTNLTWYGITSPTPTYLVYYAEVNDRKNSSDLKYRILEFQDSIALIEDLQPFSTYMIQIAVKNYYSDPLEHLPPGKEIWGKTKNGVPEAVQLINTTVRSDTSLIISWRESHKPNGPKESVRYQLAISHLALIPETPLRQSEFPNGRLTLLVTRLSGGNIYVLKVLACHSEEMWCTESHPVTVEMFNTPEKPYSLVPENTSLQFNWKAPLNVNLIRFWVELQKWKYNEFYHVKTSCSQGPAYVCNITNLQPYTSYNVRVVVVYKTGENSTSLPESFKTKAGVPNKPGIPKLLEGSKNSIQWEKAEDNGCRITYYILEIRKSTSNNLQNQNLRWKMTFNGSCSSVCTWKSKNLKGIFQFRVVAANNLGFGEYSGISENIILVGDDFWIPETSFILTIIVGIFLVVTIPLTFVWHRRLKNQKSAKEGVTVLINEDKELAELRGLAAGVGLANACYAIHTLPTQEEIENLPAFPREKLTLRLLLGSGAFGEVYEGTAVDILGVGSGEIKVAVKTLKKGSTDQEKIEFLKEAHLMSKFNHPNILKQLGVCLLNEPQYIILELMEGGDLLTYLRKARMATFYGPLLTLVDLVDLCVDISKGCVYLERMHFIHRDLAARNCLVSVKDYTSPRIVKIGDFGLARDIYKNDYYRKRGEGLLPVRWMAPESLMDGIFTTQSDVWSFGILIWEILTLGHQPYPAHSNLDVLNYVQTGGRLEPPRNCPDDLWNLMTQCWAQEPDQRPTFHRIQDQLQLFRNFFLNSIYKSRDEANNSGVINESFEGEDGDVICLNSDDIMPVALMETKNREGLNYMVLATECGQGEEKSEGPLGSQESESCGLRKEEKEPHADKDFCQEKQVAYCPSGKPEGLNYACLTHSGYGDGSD
T1 sequence (O60674 whole entry): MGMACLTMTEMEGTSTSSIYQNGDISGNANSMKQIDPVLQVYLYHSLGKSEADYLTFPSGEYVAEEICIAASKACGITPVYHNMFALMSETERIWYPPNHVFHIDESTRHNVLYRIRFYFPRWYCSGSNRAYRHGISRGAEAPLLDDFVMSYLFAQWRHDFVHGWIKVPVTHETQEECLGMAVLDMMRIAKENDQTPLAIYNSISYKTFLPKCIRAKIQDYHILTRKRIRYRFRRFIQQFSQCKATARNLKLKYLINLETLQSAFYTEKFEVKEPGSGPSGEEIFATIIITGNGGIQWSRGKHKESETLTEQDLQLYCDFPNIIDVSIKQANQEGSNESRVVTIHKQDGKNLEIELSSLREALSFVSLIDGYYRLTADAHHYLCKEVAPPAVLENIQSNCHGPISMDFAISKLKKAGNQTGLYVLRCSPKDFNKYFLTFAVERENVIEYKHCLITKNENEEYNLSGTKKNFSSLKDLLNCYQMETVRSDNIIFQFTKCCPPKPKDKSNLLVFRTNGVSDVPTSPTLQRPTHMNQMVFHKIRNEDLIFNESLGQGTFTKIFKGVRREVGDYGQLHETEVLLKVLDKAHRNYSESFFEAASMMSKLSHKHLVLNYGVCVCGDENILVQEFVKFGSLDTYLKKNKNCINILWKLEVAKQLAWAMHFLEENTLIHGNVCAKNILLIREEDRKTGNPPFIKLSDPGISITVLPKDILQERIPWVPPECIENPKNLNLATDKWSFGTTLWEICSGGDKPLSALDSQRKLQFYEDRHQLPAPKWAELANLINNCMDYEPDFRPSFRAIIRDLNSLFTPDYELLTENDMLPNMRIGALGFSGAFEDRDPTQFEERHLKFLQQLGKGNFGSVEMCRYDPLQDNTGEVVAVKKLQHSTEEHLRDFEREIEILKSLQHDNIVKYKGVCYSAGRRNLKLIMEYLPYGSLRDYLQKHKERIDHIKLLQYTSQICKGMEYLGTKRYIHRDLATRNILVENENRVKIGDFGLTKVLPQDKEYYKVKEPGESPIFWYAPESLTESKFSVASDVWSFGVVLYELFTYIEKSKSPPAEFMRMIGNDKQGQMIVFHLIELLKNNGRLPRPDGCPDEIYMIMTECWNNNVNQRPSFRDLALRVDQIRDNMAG

Work on COc1c(Nc2ncc(C#N)s2)nc(N2CCC[C@H]2c2ccc(C)cc2)nc1C(=O)N[C@H]1CC[C@H](C(=O)O)CC1 [Example 63, Trans-4-[({6-[(5-cyano-1,3-thiazol-2-yl)amino]-5-methoxy-2-[(2S)-2-(4-methylphenyl)pyrrolidin-1-yl]pyrimidin-4-yl}carbonyl)amino]cyclohexanecarboxylic acid] yielded an IC50 [1] of 120 nM, a GI50 [2] of 3.5 nM and an IC50 [3] of 0.3 nM.
In the case of CCc1c(COC)nc(N2CCC[C@H]2c2ccc(C)cc2)nc1Nc1ncc(C#N)s1 [Example 57, 2-({5-Ethyl-6-(methoxymethyl)-2-[(2S)-2-(4-methylphenyl)pyrrolidin-1-yl]pyrimidin-4-yl}amino)-1,3-thiazole-5-carbo nitrile], the IC50 [1] is reported as greater than 1000 nM, the GI50 [2] is reported as 1.8 nM and the IC50 [3] is reported as 2.7 nM.
Work on COC(=O)c1cc(Nc2ncc(C#N)s2)nc(N2CCCC2c2ccc(C)cc2)n1 (stereo not drawn) [Example 6, Methyl 6-[(5-cyano-1,3-thiazol-2-yl)amino]-2-[2-(4-methylphenyl)pyrrolidin-1-yl]pyrimidine-4-carboxylate] yielded an IC50 [1] of 92 nM, a GI50 [2] of 23 nM and an IC50 [3] of 7.1 nM.
CNC(=O)c1cc(N2CCC[C@H]2c2ccc(C)cc2)nc(Nc2ncc(C#N)s2)c1C [Example 55, 2-[(5-Cyano-1,3-thiazol-2-yl)amino]-N,3-dimethyl-6-[(2S)-2-(4-methylphenyl)pyrrolidin-1-yl]pyridine-4-carboxamide] was tested, and the IC50 [1] was 24 nM, the GI50 [2] was 0.3 nM and the IC50 [3] was 0.6 nM.
In the case of COc1c(C)nc(N2CCC[C@H]2c2ccc(C)cc2)nc1Nc1ncc(C#N)s1 [Example 9, 2-({5-Methoxy-6-methyl-2-[(2S)-2-(4-methylphenyl)pyrrolidin-1-yl]pyrimidin-4-yl}amino)-1,3-thiazole-5-carbonitrile maleate], the IC50 [1] is reported as 500 nM, the GI50 [2] is reported as 2.1 nM and the IC50 [3] is reported as 0.6 nM.
COc1c(Nc2ncc(C#N)s2)nc(N2CCC[C@H]2c2ccc(C)cc2)nc1-c1cnn(CCO)c1 [Example 59, 2-({6-[1-(2-Hydroxyethyl)-1H-pyrazol-4-yl]-5-methoxy-2-[(2S)-2-(4-methylphenyl)pyrrolidin-1-yl]pyrimidin-4-yl}amino)-1,3-thiazole-5-carbonitrile] gave an IC50 [1] of 190 nM, a GI50 [2] of 1.3 nM and an IC50 [3] of 1.5 nM.
Cc1ccc(C2CCCN2c2nc(Nc3ncc(C#N)s3)cc(C(=O)N[C@H](C)CO)n2)cc1 (stereo partly drawn) [Example 12, 6-[(5-Cyano-1,3-thiazol-2-yl)amino]-N-[(2R)-1-hydroxypropan-2-yl]-2-[2-(4-methylphenyl)pyrrolidin-1-yl]pyrimidine-4-carboxamide] gave an IC50 [1] of 540 nM, a GI50 [2] of 24 nM and an IC50 [3] of 21 nM.
Work on CCc1c(Nc2ncc(C#N)s2)nc(N2CCC[C@H]2c2ccc(C)cc2)nc1C(=O)NS(C)(=O)=O [Example 67, 6-[(5-Cyano-1,3-thiazol-2-yl)amino]-5-ethyl-2-[(2S)-2-(4-methylphenyl)pyrrolidin-1-yl]-N-(methylsulfonyl)pyrimidine-4-carboxamide] yielded an IC50 [1] of 370 nM, a GI50 [2] of 2.1 nM and an IC50 [3] of 1.5 nM.
COc1c(Nc2ncc(C#N)s2)nc(N2CCC[C@H]2c2ccc(C)cc2)nc1-c1cnc(C)nc1 [Example 60, 2-({5-Methoxy-2′-methyl-2-[(2S)-2-(4-methylphenyl)pyrrolidin-1-yl]-4,5′-bipyrimidin-6-yl}amino)-1,3-thiazole-5-carbonitrile] gave an IC50 [1] of 740 nM, a GI50 [2] of 2.9 nM and an IC50 [3] of 2.3 nM.
Work on COc1c(Nc2ncns2)nc(N2CCC[C@H]2c2ccc(C)cc2)nc1-c1cnn(CCO)c1 [Example 61, 2-(4-{5-Methoxy-2-[(2S)-2-(4-methylphenyl)pyrrolidin-1-yl]-6-(1,2,4-thiadiazol-5-ylamino)pyrimidin-4-yl}-1H-pyrazol-1-yl)ethanol] yielded an IC50 [1] of 490 nM, a GI50 [2] of 1 nM and an IC50 [3] of 2.5 nM.
Compound CCc1c(C)nc(N2CCC[C@H]2c2ccc(C)cc2)nc1Nc1ncc(C#N)s1 [Example 70, 2-({5-Ethyl-6-methyl-2-[(2S)-2-(4-methylphenyl)pyrrolidin-1-yl]pyrimidin-4-yl}amino)-1,3-thiazole-5-carbonitrile maleate] has an IC50 [1] greater than 1000 nM, a GI50 [2] of 1.7 nM and an IC50 [3] of 2.9 nM.
With COc1c(Nc2ncc(C#N)s2)nc(N2CCCC2c2ccc(C)cc2)nc1-c1ccc(S(C)(=O)=O)cc1 (stereo not drawn) [Example 13, 2-({5-Methoxy-2-[2-(4-methylphenyl)pyrrolidin-1-yl]-6-[4-(methylsulfonyl)phenyl]pyrimidin-4-yl}amino)-1,3-thiazole-5-carbonitrile] the IC50 [1] was no less than 1000 nM, the GI50 [2] was 3.5 nM and the IC50 [3] was 44 nM.
In the case of Cc1ccc(C2CCCN2c2cc(C(F)(F)F)cc(Nc3ncc(C#N)s3)n2)cc1 (stereo not drawn) [Example 27, 2-({6-[2-(4-Methylphenyl)pyrrolidin-1-yl]-4-(trifluoromethyl)pyridin-2-yl}amino)-1,3-thiazole-5-carbonitrile], the IC50 [1] is reported as greater than 1000 nM, the GI50 [2] is reported as 27 nM and the IC50 [3] is reported as 65 nM.
Cc1ccc([C@@H]2CCCN2c2cnc(C3CC3)c(Nc3ncc(C)s3)n2)cc1 [Example 34, 3-Cyclopropyl-6-[(2S)-2-(4-methylphenyl)pyrrolidin-1-yl]-N-(5-methyl-1,3-thiazol-2-yl)pyrazine-2-amine] gave an IC50 [1] greater than 1000 nM, a GI50 [2] of 12 nM and an IC50 [3] of 4.1 nM.
COc1cc(OC)cc(C2CCCN2c2cncc(Nc3ncc(C#N)s3)n2)c1 (stereo not drawn) [Example 32, 2-({6-[2-(3,5-Dimethoxyphenyl)pyrrolidin-1-yl]pyrazin-2-yl}amino)-1,3-thiazol-5-carbonitrile] was tested, and the IC50 [1] was greater than 1000 nM, the GI50 [2] was 33 nM and the IC50 [3] was 4.4 nM.
COc1c(C)nc(N2CCC[C@H]2c2ccc(C)cc2)nc1Nc1ncc(F)s1 [Example 56, N-(5-Fluoro-1,3-thiazol-2-yl)-5-methoxy-6-methyl-2-[(2S)-2-(4-methylphenyl)pyrrolidin-1-yl]pyrimidine-4-amine] was tested, and the IC50 [1] was greater than 1000 nM, the GI50 [2] was 8.2 nM and the IC50 [3] was 6.7 nM.
With CC(=O)N1CCc2nc(N3CCC[C@H]3c3ccc(C)cc3)nc(Nc3ncc(C#N)s3)c2C1 [Example 71, 2-({6-Acetyl-2-[(2S)-2-(4-methylphenyl)pyrrolidin-1-yl]-5,6,7,8-tetrahydropyrido[4,3-d]pyrimidin-4-yl}amino)-1,3-thiazole-5-carbonitrile] the IC50 [1] was 150 nM, the GI50 [2] was 2 nM and the IC50 [3] was 1.2 nM.
COc1ccc(-c2nc(N3CCCC3c3ccc(C)cc3)nc(Nc3ncc(C#N)s3)c2C)cn1 (stereo not drawn) [Example 15, 2-({6-(6-Methoxypyridin-3-yl)-5-methyl-2-[2-(4-methylphenyl)pyrrolidin-1-yl]pyrimidin-4-yl}amino)-1,3-thiazole-5-carbonitrile] gave an IC50 [1] greater than 1000 nM, a GI50 [2] of 20 nM and an IC50 [3] of 16 nM.
